Assay results from patent US6369260B1, “Process for the preparation of a pharmacologically active chemical combination” (Laboratori Alchemica S.r.l., priority 1994, dated 2002).
Like-named read-outs stand apart in the source and are kept apart here.

Assays:
rat = assay type: in vivo
Method: The gastrointestinal tolerability was evaluated by oral administration in the rat.

[1] = tested on: collagen-stimulated platelets; experiment: platelet anti-aggregating activity in vivo; details: power ratio related to the basic product taken as unit standard; oral administration
Method: The platelet anti-aggregating activity was evaluated in vivo on the collagen-stimulated platelets, according to the method described by PINON, J.Pharmacol.Methods 12,79 (1984); the gastrointestinal tolerability was evaluated by oral administration in the rat.
The results are shown in Table 2, which summarizes the study of the antithrombotic properties of said products (III), (XIII) (XVII) and (XVIII) after their oral administration.

[2] = plasmatic concentration after oral administration in the rats; details: for native products found in plasma: since the first hours of administration; for time of plasmatic elimination half-life versus native compounds: sometimes even by 300% higher
[3] = rat, in vivo, po
[4] = tested on: Mycobacterium butyricum induced paw volume increase; experiment: anti-arthritic activity, standard adjuvant arthritis method; assay type: in vivo; details: intraperitoneal, rat
Method: The anti-arthritic activity of (CCCCV) was determined in the rat, according to the standard adjuvant arthritis method, consisting in the injection of a suspension killed Mycobacterium butyricum in mineral oil in the right hind paw under light ether anesthesia. The volume of the left hindpaw was measured by plethysmography.

[5] = gastrointestinal tolerability following intraperitoneal administration; assay type: in vivo
Text: In addition, the gastrointestinal tolerability was examined in (CCCCV), as compared to the native agent.

carrageen edema = experiment: anti-inflammatory activity, carrageen edema method; assay type: in vivo; details: power ratio related to the basic product taken as unit standard; oral administration, rat
Method: The anti-inflammatory activity was determined according to the method of carrageen edema, as described by WINTER et al. Proc.Soc.Exp.Biol.Med. 111,544 (1962), in the rat.
The results are shown in Table 1, which summarizes the study of the anti-inflammatory properties of the compounds under examination after oral administration.

[6] = Table 2, relative to Aspirin = 1, oral administration
[7] = Table 1, power ratio related to the basic product taken as unit standard, oral administration

Q: With `CC(=O)Oc1ccccc1C(=O)OCCCCCCOC(=O)c1ccccc1OC(C)=O` [(III), 1.6-hexandiol bis-acetylsalicylate] as the compound, how does the “GASTROINT. TOLERABIL.” value (rat; [6]) read?
A: 0.1

Q: What about the “PLATELET ANTI-AGGREGATING ACTIVITY” value [1] of the same compound?
A: 0.8

Q: For `CC(C(=O)O)c1cccc(C(=O)c2ccccc2)c1` (centres unmarked) [Ketoprofen, reference compound], which “GASTROINT. TOLERABILITY” value (rat; [7]) is on record?
A: 1

Q: For `CS(=O)(=O)N(C(=O)CCC(=O)N(c1ccc([N+](=O)[O-])cc1Oc1ccccc1)S(C)(=O)=O)c1ccc([N+](=O)[O-])cc1Oc1ccccc1` [(XI), bis-(N-[(2-phenoxy-4-nitro)phenyl]-N′-methansulfonyl)succinamide], which “GASTROINT. TOLERABILITY” value (rat; [7]) is on record?
A: 0.8

Q: And the “native products found in plasma” value [2]?
A: significant quantities of the native products were found

Q: And the “time of plasmatic elimination half-life versus native compounds” value [2]?
A: significantly higher

Q: For `C[C@]12CCC(=O)C=C1CC[C@@H]1[C@@H]2[C@@H](O)C[C@@]2(C)[C@H]1CC[C@]2(O)C(=O)COC(=O)CCCCCCCC(=O)OCC(=O)[C@]1(O)CC[C@@H]2[C@H]3CCC4=CC(=O)CC[C@@]4(C)[C@@H]3[C@H](O)C[C@]21C` [(CCCCV), di(21-hydrocortisone)azelate], which “time of plasmatic elimination half-life versus native compounds” value [3] is on record?
A: significantly higher

Q: What about the “anti-arthritic potency relative to parent compound” value [4] of the same compound?
A: comparable with the parent compound

Q: And the “duration of pharmacological activity relative to parent compound” value [4]?
A: greater duration

Q: What about the “inhibition of Mycobacterium butyricum induced paw volume increase” value ([4]; suspended in carboxymethylcellulose 0.5-2%) of the same compound?
A: effective in inhibiting significantly

Q: What about the “native products found in plasma” value [2] of the same compound?
A: significant quantities of the native products were found

Q: What about the “gastrointestinal tolerability compared to the native agent” value [5] of the same compound?
A: significantly better tolerated than the parent compound

Q: Which “GASTROINT. TOLERABILITY” value (rat; [7]) does the source give for `CS(=O)(=O)Nc1ccc([N+](=O)[O-])cc1Oc1ccccc1` [Nimesulide, reference compound] here?
A: 1

Q: With `O=C(Cc1ccccc1Nc1c(Cl)cccc1Cl)OCCCCOC(=O)Cc1ccccc1Nc1c(Cl)cccc1Cl` [(X)] as the compound, how does the “GASTROINT. TOLERABILITY” value (rat; [7]) read?
A: 0.1

Q: For `CC(C(=O)OCCCCOC(=O)C(C)c1cccc(C(=O)c2ccccc2)c1)c1cccc(C(=O)c2ccccc2)c1` (centres unmarked) [(VII), 1,4-butandiole bis-2-[(3-benzoyl)phenyl]propionate], which “ANTIEDEMIGENIC ACTIVITY” value (carrageen edema) is on record?
A: 0.9

Q: And the “GASTROINT. TOLERABILITY” value (rat; [7])?
A: 0.3

Q: With `COc1ccc2cc([C@H](C)C(=O)O)ccc2c1` [Naproxen, reference compound] as the compound, how does the “GASTROINT. TOLERABILITY” value (rat; in vivo, po) read?
A: 1

Q: With `CC(=O)Oc1ccccc1C(=O)OCCCCOC(=O)c1ccccc1OC(C)=O` [(XIII), 1,4-buthanediol bis-acetylsalycylate] as the compound, how does the “GASTROINT. TOLERABIL.” value (rat; [6]) read?
A: 0.1

Q: What about the “PLATELET ANTI-AGGREGATING ACTIVITY” value [1] of the same compound?
A: 0.8

Q: With `O=C(O)Cc1ccccc1Nc1c(Cl)cccc1Cl` [Diclofenac, reference compound] as the compound, how does the “GASTROINT. TOLERABILITY” value (rat; [7]) read?
A: 1

Q: Which “GASTROINT. TOLERABILITY” value (rat; [7]) does the source give for `CC(C(=O)OCCCCOC(=O)C(C)c1ccc(-c2ccccc2)c(F)c1)c1ccc(-c2ccccc2)c(F)c1` (centres unmarked) [(IX)] here?
A: 0.3

Q: And the “native products found in plasma” value [2]?
A: significant quantities of the native products were found

Q: And the “time of plasmatic elimination half-life versus native compounds” value [2]?
A: significantly higher

Q: For `CC(=O)Oc1ccccc1C(=O)O` [Aspirin, reference compound], which “GASTROINT. TOLERABIL.” value (rat; in vivo, po) is on record?
A: 1

Q: What about the “PLATELET ANTI-AGGREGATING ACTIVITY” value [1] of the same compound?
A: 1

Q: Which “GASTROINT. TOLERABILITY” value (rat; in vivo, po) does the source give for `CC(C(=O)O)c1ccc(-c2ccccc2)c(F)c1` (centres unmarked) [Flurbiprofen, reference compound] here?
A: 1
